In US20180311241A1, “PHARMACEUTICAL SYNERGISTIC COMBINATION” (CADILA HEALTHCARE LIMITED, priority 2015, published 2018):
Values joined by “and” are separate entries in the source; they are usually repeats but may differ in a detail not shown here. Equal values may be shown once.

Experiments:
[1] = tested on: rat model of infrarenal abdominal aorta-vena cava fistula (AV fistula); test: AV fistula model: mean arterial blood pressure; format: in vivo, Sprague Dawley rats; settings: for % change in meal arterial pressure / Mean arterial pressure: PO; for % change in meal arterial pressure: 7 days, against vehicle control; for Mean arterial pressure: after 7 days of treatment, AV fistula rats; for reduction of mean arterial blood pressure: after treatment period, in comparison to vehicle control, given as reduction
Source text: (§1) Sprague Dawley rats will be used in the study at the age to 6-8 weeks. A midline abdominal incision will be made under anesthesia to expose the vena cava and abdominal aorta distal to the origin of the renal arteries. A longitudinal incision will be performed in the outer wall of the vena cava. The common wall between the aorta and vena cava will be grabbed through the incision and a fistula (1.0-1.2 mm outer diameter) will be created between the vena cava and aorta. The opening of the outer wall of the vena cava will be closed with a continuous suture. After the surgical procedure, the animals will be allowed to recover with daily monitoring of urine output and sodium excretion in metabolic cages. A matched group of sham-operated rats will serve as controls. After a week of surgical operation, rats will be divided into subgroups according to their daily absolute rate of sodium excretion. Fimasartan or its pharmaceutically acceptable salt, or Sacubitril or its pharmaceutically acceptable salt or their combination will be taken as a low dose, middle dose, and high dose group. Animals will be treated daily for four weeks with weekly measurement of blood pressure. Additionally, sodium excretion and creatinine clearance will be measured twice weekly. In the rat model of infrarenal abdominal aorta-vena cava fistula (AV fistula), workload on heart increases by sustained volume overload, this reduces sodium excretion and leads to cardiac hypertrophy. Rats receiving fimasartan (5, 10 and 30 mg/kg/day), sacubitril (25, 50 and 75 mg/kg/day) and combination (fimasartan 10 mg/kg and sacubitril 50 mg/kg) were evaluated in AV fistula model. Sprague Dawley rats in these experimental groups were treated daily by gavage for seven days and urine volume and sodium excretion were daily measured. Rats treated with vehicle served as controls. Rats with sham operation or animals with arterio-venous fistula treated with vehicle served as controls. Animals were randomized based on 24 h urinary sodium excretion. Animals with <100 μEq/24 h urinary sodium excretion were selected in study except sham control animals. Treatment was initiated for 7 days with daily measurement of sodium excretion and results were expressed as cumulative urinary sodium excretion. […] These observations indicate that combination of fimasartan and sacubitril reduce volume overload associated with AV Fistula. After completion of the treatment period, mean arterial blood pressure was evaluated from animals from different experimental groups.

[2] = tested on: five sixth nephrectomized rats; test: Subtotal nephrectomy induced hypertension: blood pressure; format: in vivo, Sprague Dawley rats; settings: four weeks
Description: Fimasartan 10 mg/kg and Sacubitril 50 mg/kg and combination were administered for 4 weeks. Prior to initiation, Sprague Dawley rats were randomized based on their systolic blood pressure after one week of recovery. These experimental groups were treated daily by gavage for four weeks and their weekly blood pressure was measured. Rats treated with vehicle served as controls and sham operated animals treated with vehicle served as sham controls. […] Experimental model of acute cardiac failure is characterized by several features that closely mimic the pathophysiological consequences of CHF in patients, includes the characteristic neurohumoral activation, decrease in renal perfusion, sodium retention and cardiac hypertrophy (J Biomed Biotechnol. 2011; 2011: 729497). […] Five sixth nephrectomy represent a model of hypertension in rats and in clinic it has been observed that loss of renal mass is associated with increased hypertension (APMIS. 1992 December; 100(12):1097-105; International Journal of Urology (2015) 22, 797-804).

[3] = tested on: rat model of infrarenal abdominal aorta-vena cava fistula (AV fistula); test: AV fistula model: cumulative urinary sodium excretion; format: in vivo, Sprague Dawley rats; settings: PO; for Urinary sodium (cumulative sodium excretion): 7 days of treatment, AV fistula rats; for % change in urinary sodium: 7 days, against vehicle control
Source text: as §1, with “Rats receiving fimasartan (5, 10 and 30 mg/kg/day), sacubitril (25, 50 and 75 mg/kg/day) and combination (fimasartan 10 mg/kg and sacubitril 50 mg/kg) were evaluated in AV fistula model.” left out

NEP = NEP (Homo sapiens, UniProt P08473); settings: in vivo; cited from earlier work
Sequence of NEP (P08473 whole entry): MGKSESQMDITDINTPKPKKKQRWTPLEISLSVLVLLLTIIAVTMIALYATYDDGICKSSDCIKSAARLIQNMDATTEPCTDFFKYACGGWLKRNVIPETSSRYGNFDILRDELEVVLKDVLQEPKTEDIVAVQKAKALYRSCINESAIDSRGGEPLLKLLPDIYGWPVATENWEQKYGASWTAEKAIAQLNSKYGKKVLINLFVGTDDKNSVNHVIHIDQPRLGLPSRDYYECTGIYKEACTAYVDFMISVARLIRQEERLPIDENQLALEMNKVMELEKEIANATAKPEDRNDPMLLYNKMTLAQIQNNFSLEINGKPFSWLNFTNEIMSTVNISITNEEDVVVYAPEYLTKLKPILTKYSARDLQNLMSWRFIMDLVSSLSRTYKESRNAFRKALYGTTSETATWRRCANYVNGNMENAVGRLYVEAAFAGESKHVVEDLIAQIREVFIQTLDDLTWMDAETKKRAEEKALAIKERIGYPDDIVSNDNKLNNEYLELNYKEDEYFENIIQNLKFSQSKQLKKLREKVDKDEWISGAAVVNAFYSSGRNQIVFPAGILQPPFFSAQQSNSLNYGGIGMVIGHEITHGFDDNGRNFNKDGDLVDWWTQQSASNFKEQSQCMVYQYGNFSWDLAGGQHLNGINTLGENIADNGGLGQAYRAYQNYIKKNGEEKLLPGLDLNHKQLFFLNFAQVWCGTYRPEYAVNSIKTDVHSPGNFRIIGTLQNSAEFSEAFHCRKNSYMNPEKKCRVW

Q: Which “% change in meal arterial pressure” value ([1]; sacubitril 50 mg/kg) does the source give for `CCOC(=O)[C@H](C)C[C@@H](Cc1ccc(-c2ccccc2)cc1)NC(=O)CCC(=O)O` [Sacubitril, 4-[[(2S,4R)-5-ethoxy-4-methyl-5-oxo-1-(4-phenylphenyl)pentan-2-yl]amino]-4-oxobutanoic acid] here?
A: −8 ± 1.9 %

Q: What about the Mean arterial pressure ([1]; sacubitril 50 mg/kg) of the same molecule?
A: 109.2 ± 2.2 mmHg

Q: What about the “reduction of mean arterial blood pressure” value ([1]; sacubitril alone (FIG. 2)) of the same molecule?
A: 8.0±1.9%

Q: What about the “reduction in blood pressure against vehicle control” value ([2]; Sacubitril 50 mg/kg daily by gavage) of the same molecule?
A: 18.7%

Q: What about the “Urinary sodium (cumulative sodium excretion)” value ([3]; sacubitril 25 mg/kg) of the same molecule?
A: 5185.7 ± 443.7 μeq/24 h

Q: And the “% change in urinary sodium” value ([3]; sacubitril 25 mg/kg)?
A: 41.9 ± 12.2 %

Q: What about the “% change in urinary sodium” value ([3]; sacubitril 25 mg/kg, listed as sacubitril) of the same molecule?
A: 41.9±12.1%

Q: What about the “Urinary sodium (cumulative sodium excretion)” value ([3]; sacubitril 50 mg/kg) of the same molecule?
A: 6678.7 ± 451.7 μeq/24 h

Q: What about the “% change in urinary sodium” value ([3]; sacubitril 50 mg/kg) of the same molecule?
A: 82.6 ± 13.5 %

Q: And the “% change in urinary sodium” value ([3]; sacubitril 50 mg/kg, listed as sacubitril)?
A: 82.6±13.5%

Q: What about the “Urinary sodium (cumulative sodium excretion)” value ([3]; sacubitril 75 mg/kg) of the same molecule?
A: 9129.7 ± 449.7 μeq/24 h

Q: And the “% change in urinary sodium” value ([3]; sacubitril 75 mg/kg)?
A: 150.1 ± 10.4 %

Q: And the “% change in urinary sodium” value ([3]; sacubitril 75 mg/kg, listed as sacubitril)?
A: 150.1±10.4%

Q: With `CCCCc1nc(C)c(CC(=S)N(C)C)c(=O)n1Cc1ccc(-c2ccccc2-c2nnn[nH]2)cc1` [Fimasartan, 2-n-butyl-5-dimethylaminothiocarbonyl-methyl-6-methyl-3-[[2′-(1H-tetrazol-5-yl)biphenyl-4-yl]methyl]pyrimidin-4(3H)-one] as the molecule, how does the “% change in meal arterial pressure” value ([1]; fimasartan 10 mg/kg) read?
A: −5.9 ± 1.9 %

Q: What about the Mean arterial pressure ([1]; fimasartan 10 mg/kg) of the same molecule?
A: 111.7 ± 2.3 mmHg

Q: And the “reduction of mean arterial blood pressure” value ([1]; fimasartan alone (FIG. 2))?
A: 5.9±1.9%

Q: And the “reduction in blood pressure against vehicle control” value ([2]; Fimasartan 10 mg/kg daily by gavage)?
A: 15.9%

Q: What about the “Urinary sodium (cumulative sodium excretion)” value ([3]; fimasartan 5 mg/kg) of the same molecule?
A: 4784.8 ± 497.5 μeq/24 h

Q: What about the “% change in urinary sodium” value ([3]; fimasartan 5 mg/kg) of the same molecule?
A: 31.1 ± 13.6 %

Q: What about the “% change in urinary sodium” value ([3]; fimasartan 5 mg/kg, listed as fimasartan) of the same molecule?
A: 31.1±13.6%

Q: What about the “Urinary sodium (cumulative sodium excretion)” value ([3]; fimasartan 10 mg/kg) of the same molecule?
A: 5179.7 ± 451.2 μeq/24 h and 5179.7 ± 443.7 μeq/24 h

Q: And the “% change in urinary sodium” value ([3]; fimasartan 10 mg/kg)?
A: 41.9 ± 12.2 % and 51.2 ± 11.9 %

Q: What about the “% change in urinary sodium” value ([3]; fimasartan 10 mg/kg, listed as fimasartan) of the same molecule?
A: 41.9±12.2%

Q: And the “Urinary sodium (cumulative sodium excretion)” value ([3]; fimasartan 20 mg/kg)?
A: 6664.7 ± 448.2 μeq/24 h

Q: What about the “% change in urinary sodium” value ([3]; fimasartan 20 mg/kg) of the same molecule?
A: 82.6 ± 13.1 %

Q: And the “% change in urinary sodium” value ([3]; fimasartan 20 mg/kg, listed as fimasartan)?
A: 82.6±13.1%

Q: Which “natriuretic and cyclic GMP responses to a low-dose ANP infusion” value (NEP) does the source give for `COCCOC[C@H](CC1(C(=O)N[C@H]2CC[C@@H](C(=O)O)CC2)CCCC1)C(=O)O` [candoxatrilat] here?
A: potentiates
